{"source": "paper PMC9067983", "about": "“Identification of highly selective type II kinase inhibitors with chiral peptidomimetic tails” (Journal of Enzyme Inhibition and Medicinal Chemistry, 2022)", "experiment_in_all_cases": "kinase selectivity profiling", "format_in_all_cases": "biochemical", "conditions_in_all_cases": "10µM ATP, read-out: % inhibition (relative to DMSO)", "key": {"[1]": {"molecular_target": "T1, SIK3 (Homo sapiens, UniProt Q9Y2K2)", "T1 construct": "purchased Reaction Biology Corp", "method": "(§1) Full panel kinase profiling and kinase IC50 measurement were performed by using Reaction Biology Corp. (San Diego, USA)."}, "[2]": {"molecular_target": "T2, Aurora B (Homo sapiens, UniProt Q96GD4)", "T2 construct": "purchased Reaction Biology Corp", "method": "as §1"}, "[3]": {"molecular_target": "T3, STK25/YSK1 (Homo sapiens, UniProt O00506)", "T3 construct": "purchased Reaction Biology Corp", "method": "as §1"}, "[4]": {"molecular_target": "T4, PKCb1 (Homo sapiens, UniProt P05771)", "T4 construct": "purchased Reaction Biology Corp", "method": "as §1"}, "[5]": {"molecular_target": "T5, EPHA4 (Homo sapiens, UniProt P54764)", "T5 construct": "purchased Reaction Biology Corp", "method": "as §1"}, "[6]": {"molecular_target": "T6, NIM1 (Homo sapiens, UniProt Q8IY84)", "T6 construct": "purchased Reaction Biology Corp", "method": "as §1"}, "[7]": {"molecular_target": "T7, CK1g2 (Homo sapiens, UniProt P78368)", "T7 construct": "purchased Reaction Biology Corp", "method": "as §1"}, "[8]": {"molecular_target": "T8, TAOK1 (Homo sapiens, UniProt Q7L7X3)", "T8 construct": "purchased Reaction Biology Corp", "method": "as §1"}, "[9]": {"molecular_target": "T9, EPHA1 (Homo sapiens, UniProt P21709)", "T9 construct": "purchased Reaction Biology Corp", "method": "as §1"}, "[10]": {"molecular_target": "T10, EGFR (Homo sapiens, UniProt P00533)", "T10 construct": "purchased Reaction Biology Corp", "T10 sequence (P00533 25-1210)": "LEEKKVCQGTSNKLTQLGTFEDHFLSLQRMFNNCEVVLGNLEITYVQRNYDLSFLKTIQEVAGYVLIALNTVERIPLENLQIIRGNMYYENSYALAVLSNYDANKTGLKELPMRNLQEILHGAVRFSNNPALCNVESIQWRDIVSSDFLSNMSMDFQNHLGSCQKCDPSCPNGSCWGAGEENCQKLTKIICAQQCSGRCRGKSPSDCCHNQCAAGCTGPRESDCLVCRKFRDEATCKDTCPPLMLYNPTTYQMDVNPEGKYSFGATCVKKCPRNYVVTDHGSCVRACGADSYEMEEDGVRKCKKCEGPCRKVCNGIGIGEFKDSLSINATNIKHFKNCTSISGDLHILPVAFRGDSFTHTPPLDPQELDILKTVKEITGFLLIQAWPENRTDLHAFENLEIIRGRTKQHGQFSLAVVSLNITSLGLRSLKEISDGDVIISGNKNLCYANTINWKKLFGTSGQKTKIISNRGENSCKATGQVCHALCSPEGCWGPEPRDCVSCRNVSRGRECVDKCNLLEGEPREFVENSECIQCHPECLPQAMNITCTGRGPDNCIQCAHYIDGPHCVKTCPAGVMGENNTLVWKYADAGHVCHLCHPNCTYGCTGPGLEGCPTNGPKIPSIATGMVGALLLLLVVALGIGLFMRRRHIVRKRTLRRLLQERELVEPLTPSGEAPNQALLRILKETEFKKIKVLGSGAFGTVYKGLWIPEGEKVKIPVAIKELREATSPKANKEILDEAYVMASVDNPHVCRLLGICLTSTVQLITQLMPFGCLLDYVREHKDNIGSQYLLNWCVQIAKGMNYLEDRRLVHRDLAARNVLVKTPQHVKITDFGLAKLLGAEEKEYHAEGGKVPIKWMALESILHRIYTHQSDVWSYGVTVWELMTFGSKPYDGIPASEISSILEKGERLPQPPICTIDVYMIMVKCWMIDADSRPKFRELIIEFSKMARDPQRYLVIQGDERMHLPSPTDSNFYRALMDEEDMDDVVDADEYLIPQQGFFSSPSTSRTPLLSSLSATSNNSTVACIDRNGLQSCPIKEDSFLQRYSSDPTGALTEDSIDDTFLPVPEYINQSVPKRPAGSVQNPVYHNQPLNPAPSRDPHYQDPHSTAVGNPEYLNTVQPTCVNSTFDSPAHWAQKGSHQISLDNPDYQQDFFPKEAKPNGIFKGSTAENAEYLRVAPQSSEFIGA", "method": "as §1"}, "[11]": {"molecular_target": "T11, JNK1 (Homo sapiens, UniProt P45983)", "T11 construct": "purchased Reaction Biology Corp", "method": "as §1"}, "[12]": {"molecular_target": "T12, FAK/PTK2 (Homo sapiens, UniProt Q05397)", "T12 construct": "purchased Reaction Biology Corp", "method": "as §1"}, "[13]": {"molecular_target": "T13, IKKb/IKBKB (Homo sapiens, UniProt O14920)", "T13 construct": "purchased Reaction Biology Corp", "method": "as §1"}, "[14]": {"molecular_target": "T14, CHK1 (Homo sapiens, UniProt O14757)", "T14 construct": "purchased Reaction Biology Corp", "method": "as §1"}, "[15]": {"molecular_target": "T15, MYO3b (Homo sapiens, UniProt Q8WXR4)", "T15 construct": "purchased Reaction Biology Corp", "method": "as §1"}, "[16]": {"molecular_target": "T16, DCAMKL1 (Homo sapiens, UniProt O15075)", "T16 construct": "purchased Reaction Biology Corp", "method": "as §1"}, "[17]": {"molecular_target": "T17, RAF1 (Homo sapiens, UniProt P04049)", "T17 construct": "purchased Reaction Biology Corp", "method": "as §1"}, "[18]": {"molecular_target": "T18, CK1a1 (Homo sapiens, UniProt P48729)", "T18 construct": "purchased Reaction Biology Corp", "method": "as §1"}, "[19]": {"molecular_target": "T19, SIK1 (Homo sapiens, UniProt P57059)", "T19 construct": "purchased Reaction Biology Corp", "method": "as §1"}, "[20]": {"molecular_target": "T20, STK22D/TSSK1 (Homo sapiens, UniProt Q9BXA7)", "T20 construct": "purchased Reaction Biology Corp", "method": "as §1"}, "[21]": {"molecular_target": "T21, AKT3 (Homo sapiens, UniProt Q9Y243)", "T21 construct": "purchased Reaction Biology Corp", "method": "as §1"}, "[22]": {"molecular_target": "T22, HIPK3 (Homo sapiens, UniProt Q9H422)", "T22 construct": "purchased Reaction Biology Corp", "method": "as §1"}, "[23]": {"molecular_target": "T23, MSSK1/STK23 (Homo sapiens, UniProt Q9UPE1)", "T23 construct": "purchased Reaction Biology Corp", "method": "as §1"}, "[24]": {"molecular_target": "T24, DYRK1B (Homo sapiens, UniProt Q9Y463)", "T24 construct": "purchased Reaction Biology Corp", "method": "as §1"}, "[25]": {"molecular_target": "T25, BRK (Homo sapiens, UniProt Q13882)", "T25 construct": "purchased Reaction Biology Corp", "method": "as §1"}, "[26]": {"molecular_target": "T26, Haspin (Homo sapiens, UniProt Q8TF76)", "T26 construct": "purchased Reaction Biology Corp", "method": "as §1"}, "[27]": {"molecular_target": "T27, RIPK4 (Homo sapiens, UniProt P57078)", "T27 construct": "purchased Reaction Biology Corp", "method": "as §1"}, "[28]": {"molecular_target": "T28, P38g (Homo sapiens, UniProt P53778)", "T28 construct": "purchased Reaction Biology Corp", "method": "as §1"}, "[29]": {"molecular_target": "T29, Blk (Homo sapiens, UniProt P51451)", "T29 construct": "purchased Reaction Biology Corp", "T29 sequence (P51451 whole entry)": "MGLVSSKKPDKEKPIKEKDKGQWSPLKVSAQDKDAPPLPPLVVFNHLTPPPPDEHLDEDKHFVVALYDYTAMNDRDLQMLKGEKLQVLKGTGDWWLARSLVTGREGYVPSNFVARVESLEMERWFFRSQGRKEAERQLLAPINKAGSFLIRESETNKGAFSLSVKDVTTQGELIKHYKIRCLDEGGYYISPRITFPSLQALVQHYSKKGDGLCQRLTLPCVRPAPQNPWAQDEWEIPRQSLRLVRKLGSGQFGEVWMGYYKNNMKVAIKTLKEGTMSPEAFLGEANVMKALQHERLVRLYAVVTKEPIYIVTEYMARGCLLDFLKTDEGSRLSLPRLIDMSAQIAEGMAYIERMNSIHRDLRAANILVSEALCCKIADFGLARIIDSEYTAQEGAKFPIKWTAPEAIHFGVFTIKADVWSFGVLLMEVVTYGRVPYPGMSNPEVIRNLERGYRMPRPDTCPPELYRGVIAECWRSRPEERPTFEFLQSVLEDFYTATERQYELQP", "method": "as §1"}, "[30]": {"molecular_target": "T30, DRAK1/STK17A (Homo sapiens, UniProt Q9UEE5)", "T30 construct": "purchased Reaction Biology Corp", "method": "as §1"}, "[31]": {"molecular_target": "T31, TTBK1 (Homo sapiens, UniProt Q5TCY1)", "T31 construct": "purchased Reaction Biology Corp", "T31 sequence (Q5TCY1 whole entry)": "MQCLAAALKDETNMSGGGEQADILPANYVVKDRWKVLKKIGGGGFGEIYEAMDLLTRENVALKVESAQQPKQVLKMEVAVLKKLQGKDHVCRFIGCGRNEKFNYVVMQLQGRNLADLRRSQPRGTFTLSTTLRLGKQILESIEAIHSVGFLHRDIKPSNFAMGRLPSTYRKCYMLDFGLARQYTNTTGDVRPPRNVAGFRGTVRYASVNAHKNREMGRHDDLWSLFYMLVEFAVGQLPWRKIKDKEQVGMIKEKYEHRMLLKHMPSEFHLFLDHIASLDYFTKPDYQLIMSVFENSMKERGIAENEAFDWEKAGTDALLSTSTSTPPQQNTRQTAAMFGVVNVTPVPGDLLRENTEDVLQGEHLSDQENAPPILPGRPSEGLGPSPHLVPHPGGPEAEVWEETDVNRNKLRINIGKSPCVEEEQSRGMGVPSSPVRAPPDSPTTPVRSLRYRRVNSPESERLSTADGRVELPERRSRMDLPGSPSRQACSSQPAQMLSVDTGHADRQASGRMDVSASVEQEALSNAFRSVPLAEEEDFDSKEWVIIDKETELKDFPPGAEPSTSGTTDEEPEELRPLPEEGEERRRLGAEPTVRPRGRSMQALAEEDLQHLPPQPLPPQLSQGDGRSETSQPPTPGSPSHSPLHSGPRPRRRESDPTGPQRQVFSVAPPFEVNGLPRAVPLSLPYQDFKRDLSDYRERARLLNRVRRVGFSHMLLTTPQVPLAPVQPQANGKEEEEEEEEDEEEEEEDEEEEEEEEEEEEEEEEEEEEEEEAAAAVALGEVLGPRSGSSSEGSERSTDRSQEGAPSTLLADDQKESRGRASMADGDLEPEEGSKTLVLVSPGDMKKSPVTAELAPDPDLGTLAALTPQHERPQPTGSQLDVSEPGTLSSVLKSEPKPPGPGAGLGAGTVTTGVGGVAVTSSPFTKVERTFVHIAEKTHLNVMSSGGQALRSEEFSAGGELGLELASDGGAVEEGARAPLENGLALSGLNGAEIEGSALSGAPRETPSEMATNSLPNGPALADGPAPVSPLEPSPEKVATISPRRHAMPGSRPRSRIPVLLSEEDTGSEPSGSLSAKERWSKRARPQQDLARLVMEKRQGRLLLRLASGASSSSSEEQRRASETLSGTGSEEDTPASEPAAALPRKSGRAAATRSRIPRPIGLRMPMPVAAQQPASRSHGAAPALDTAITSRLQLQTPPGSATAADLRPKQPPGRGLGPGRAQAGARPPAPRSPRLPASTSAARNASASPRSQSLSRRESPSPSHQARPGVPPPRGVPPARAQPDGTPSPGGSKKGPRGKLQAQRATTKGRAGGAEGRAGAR", "method": "as §1"}, "[32]": {"molecular_target": "T32, ASK1/MAP3K5 (Homo sapiens, UniProt Q99683)", "T32 construct": "purchased Reaction Biology Corp", "method": "as §1"}, "[33]": {"molecular_target": "T33, MKK7 (Homo sapiens, UniProt O14733)", "T33 construct": "purchased Reaction Biology Corp", "T33 sequence (O14733 whole entry)": "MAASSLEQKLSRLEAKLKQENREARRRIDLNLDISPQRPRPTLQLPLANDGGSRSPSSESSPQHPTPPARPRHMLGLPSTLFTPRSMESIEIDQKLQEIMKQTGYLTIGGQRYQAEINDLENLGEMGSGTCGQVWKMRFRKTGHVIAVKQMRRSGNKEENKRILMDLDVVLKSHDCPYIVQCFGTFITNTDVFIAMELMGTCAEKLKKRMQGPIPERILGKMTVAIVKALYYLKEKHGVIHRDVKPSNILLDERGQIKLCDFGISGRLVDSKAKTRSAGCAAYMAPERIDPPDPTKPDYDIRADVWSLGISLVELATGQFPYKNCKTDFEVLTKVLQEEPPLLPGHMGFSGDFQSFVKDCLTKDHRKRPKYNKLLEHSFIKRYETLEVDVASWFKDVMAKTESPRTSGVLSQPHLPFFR", "method": "as §1"}, "[34]": {"molecular_target": "T34, BTK (Homo sapiens, UniProt Q06187)", "T34 construct": "purchased Reaction Biology Corp", "method": "as §1"}, "[35]": {"molecular_target": "T35, ROCK1 (Homo sapiens, UniProt Q13464)", "T35 construct": "purchased Reaction Biology Corp", "method": "as §1"}, "[36]": {"molecular_target": "T36, EPHA7 (Homo sapiens, UniProt Q15375)", "T36 construct": "purchased Reaction Biology Corp", "method": "as §1"}, "[37]": {"molecular_target": "T37, p38b/MAPK11 (Homo sapiens, UniProt Q15759)", "T37 construct": "purchased Reaction Biology Corp", "method": "as §1"}, "[38]": {"molecular_target": "T38, DAPK2 (Homo sapiens, UniProt Q9UIK4)", "T38 construct": "purchased Reaction Biology Corp", "method": "as §1"}, "[39]": {"molecular_target": "T39, PBK/TOPK (Homo sapiens, UniProt Q96KB5)", "T39 construct": "purchased Reaction Biology Corp", "T39 sequence (Q96KB5 whole entry)": "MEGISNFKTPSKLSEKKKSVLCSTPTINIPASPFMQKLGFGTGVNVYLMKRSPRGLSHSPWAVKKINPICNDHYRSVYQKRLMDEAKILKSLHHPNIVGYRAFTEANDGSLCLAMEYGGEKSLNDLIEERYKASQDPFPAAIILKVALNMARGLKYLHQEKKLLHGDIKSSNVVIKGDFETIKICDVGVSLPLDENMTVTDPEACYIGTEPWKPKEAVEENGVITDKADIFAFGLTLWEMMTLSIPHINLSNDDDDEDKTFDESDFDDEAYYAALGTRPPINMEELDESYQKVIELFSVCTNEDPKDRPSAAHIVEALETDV", "method": "as §1"}, "[40]": {"molecular_target": "T40, NEK11 (Homo sapiens, UniProt Q8NG66)", "T40 construct": "purchased Reaction Biology Corp", "method": "as §1"}, "[41]": {"molecular_target": "T41, KDR/VEGFR2 (Homo sapiens, UniProt P35968)", "T41 construct": "purchased Reaction Biology Corp", "T41 sequence (P35968 20-1356)": "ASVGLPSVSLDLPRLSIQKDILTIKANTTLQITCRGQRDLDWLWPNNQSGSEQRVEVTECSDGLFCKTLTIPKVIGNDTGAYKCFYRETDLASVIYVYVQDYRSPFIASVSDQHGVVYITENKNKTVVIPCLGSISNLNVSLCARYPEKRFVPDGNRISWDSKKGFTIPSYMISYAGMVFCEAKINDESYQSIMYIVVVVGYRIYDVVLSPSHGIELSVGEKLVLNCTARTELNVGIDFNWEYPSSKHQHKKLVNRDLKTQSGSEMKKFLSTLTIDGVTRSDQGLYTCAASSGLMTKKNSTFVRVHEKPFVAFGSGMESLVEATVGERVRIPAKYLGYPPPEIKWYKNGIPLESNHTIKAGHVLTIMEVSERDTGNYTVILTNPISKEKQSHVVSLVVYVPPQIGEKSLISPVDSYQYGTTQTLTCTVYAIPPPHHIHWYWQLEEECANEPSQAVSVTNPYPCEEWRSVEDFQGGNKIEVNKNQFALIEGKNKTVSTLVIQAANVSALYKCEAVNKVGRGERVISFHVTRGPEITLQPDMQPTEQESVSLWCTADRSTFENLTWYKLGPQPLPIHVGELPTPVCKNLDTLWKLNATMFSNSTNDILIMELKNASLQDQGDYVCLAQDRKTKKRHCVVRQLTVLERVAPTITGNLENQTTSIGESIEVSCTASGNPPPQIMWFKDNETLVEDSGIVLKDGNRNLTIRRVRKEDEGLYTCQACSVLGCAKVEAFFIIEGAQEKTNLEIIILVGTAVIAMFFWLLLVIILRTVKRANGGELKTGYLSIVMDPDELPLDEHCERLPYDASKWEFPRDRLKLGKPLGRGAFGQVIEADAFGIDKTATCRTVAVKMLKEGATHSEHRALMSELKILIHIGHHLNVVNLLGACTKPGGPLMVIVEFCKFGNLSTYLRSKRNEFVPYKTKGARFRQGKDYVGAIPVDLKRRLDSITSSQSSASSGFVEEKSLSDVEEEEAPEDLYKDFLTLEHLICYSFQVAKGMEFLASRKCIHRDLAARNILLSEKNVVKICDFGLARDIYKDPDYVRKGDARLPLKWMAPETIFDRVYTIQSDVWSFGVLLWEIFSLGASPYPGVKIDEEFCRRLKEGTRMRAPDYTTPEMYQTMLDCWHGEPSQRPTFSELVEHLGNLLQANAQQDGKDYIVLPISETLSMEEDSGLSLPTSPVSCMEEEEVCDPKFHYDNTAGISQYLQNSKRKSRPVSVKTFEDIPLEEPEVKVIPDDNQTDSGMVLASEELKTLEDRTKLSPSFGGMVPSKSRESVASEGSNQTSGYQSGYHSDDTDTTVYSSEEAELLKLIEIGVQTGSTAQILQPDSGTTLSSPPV", "method": "as §1"}, "[42]": {"molecular_target": "T42, CK1a1L (Homo sapiens, UniProt Q8N752)", "T42 construct": "purchased Reaction Biology Corp", "method": "as §1"}, "[43]": {"molecular_target": "T43, EPHA3 (Homo sapiens, UniProt P29320)", "T43 construct": "purchased Reaction Biology Corp", "method": "as §1"}}, "note": "Where a SMILES comes first, the peptide text is derived from it. [ ]: non-standard residue; d: D form. The star is where a group is joined. X1 = Cc1ccc(Nc2ncc3c(n2)N(C)C(=O)N(c2cc(C(=O)*)ccc2C)C3)cn1; Aib = CC(C)(N)C(=O)O", "data": [{"smiles": "Cc1ccc(Nc2ncc3c(n2)N(C)C(=O)N(c2cc(C(=O)N[C@H](C(=O)N4CCC[C@H]4C(=O)NC(C)(C)C(=O)N[C@@H](CC(C)C)C(=O)N(C)C)C(C)C)ccc2C)C3)cn1", "note": "[7a, (S)-N-(1-(((S)-1-(dimethylamino)-4-methyl-1-oxopentan-2-yl)amino)-2-methyl-1-oxopropan-2-yl)-1-((4-methyl-3-(1-methyl-7-((6-methylpyridin-3-yl)amino)-2-oxo-1,4-dihydropyrimido[4,5-d]pyrimidin-3(2H)-yl)benzoyl)-L-valyl)pyrrolidine-2-carboxamide] (X1-VP[Aib]L-NMe2)", "values": [{"measurement": "inhibition at 1 µM", "setting": "[1]", "result": 12, "unit": "%"}, {"measurement": "inhibition at 1 µM", "setting": "[2]", "result": 6, "unit": "%"}, {"measurement": "inhibition at 1 µM", "setting": "[3]", "result": 3, "unit": "%"}, {"measurement": "inhibition at 1 µM", "setting": "[4]", "result": 4, "unit": "%"}, {"measurement": "inhibition at 1 µM", "setting": "[5]", "result": 29, "unit": "%"}, {"measurement": "inhibition at 1 µM", "setting": "[6]", "result": 4, "unit": "%"}, {"measurement": "inhibition at 1 µM", "setting": "[7]", "result": 2, "unit": "%"}, {"measurement": "inhibition at 1 µM", "setting": "[8]", "result": 0, "unit": "%"}, {"measurement": "inhibition at 1 µM", "setting": "[9]", "result": 3, "unit": "%"}, {"measurement": "inhibition at 1 µM", "setting": "[10]", "result": 0, "unit": "%"}, {"measurement": "inhibition at 1 µM", "setting": "[11]", "result": 0, "unit": "%"}, {"measurement": "inhibition at 1 µM", "setting": "[12]", "result": 5, "unit": "%"}, {"measurement": "inhibition at 1 µM", "setting": "[13]", "result": 0, "unit": "%"}, {"measurement": "inhibition at 1 µM", "setting": "[14]", "result": 0, "unit": "%"}, {"measurement": "inhibition at 1 µM", "setting": "[15]", "result": 0, "unit": "%"}, {"measurement": "inhibition at 1 µM", "setting": "[16]", "result": 0, "unit": "%"}, {"measurement": "inhibition at 1 µM", "setting": "[17]", "result": 69, "unit": "%"}, {"measurement": "inhibition at 1 µM", "setting": "[18]", "result": 0, "unit": "%"}, {"measurement": "inhibition at 1 µM", "setting": "[19]", "result": 10, "unit": "%"}, {"measurement": "inhibition at 1 µM", "setting": "[20]", "result": 6, "unit": "%"}, {"measurement": "inhibition at 1 µM", "setting": "[21]", "result": 10, "unit": "%"}, {"measurement": "inhibition at 1 µM", "setting": "[22]", "result": 0, "unit": "%"}, {"measurement": "inhibition at 1 µM", "setting": "[23]", "result": 10, "unit": "%"}, {"measurement": "inhibition at 1 µM", "setting": "[24]", "result": 11, "unit": "%"}, {"measurement": "inhibition at 1 µM", "setting": "[25]", "result": 0, "unit": "%"}, {"measurement": "inhibition at 1 µM", "setting": "[26]", "result": 1, "unit": "%"}, {"measurement": "inhibition at 1 µM", "setting": "[27]", "result": 15, "unit": "%"}, {"measurement": "inhibition at 1 µM", "setting": "[28]", "result": 4, "unit": "%"}, {"measurement": "inhibition at 1 µM", "setting": "[29]", "result": 73, "unit": "%"}, {"measurement": "inhibition at 1 µM", "setting": "[30]", "result": 0, "unit": "%"}, {"measurement": "inhibition at 1 µM", "setting": "[31]", "result": 0, "unit": "%"}, {"measurement": "inhibition at 1 µM", "setting": "[32]", "result": 0, "unit": "%"}, {"measurement": "inhibition at 1 µM", "setting": "[33]", "result": 2, "unit": "%"}, {"measurement": "inhibition at 1 µM", "setting": "[34]", "result": 6, "unit": "%"}, {"measurement": "inhibition at 1 µM", "setting": "[35]", "result": 13, "unit": "%"}, {"measurement": "inhibition at 1 µM", "setting": "[36]", "result": 2, "unit": "%"}, {"measurement": "inhibition at 1 µM", "setting": "[37]", "result": 13, "unit": "%"}, {"measurement": "inhibition at 1 µM", "setting": "[38]", "result": 1, "unit": "%"}, {"measurement": "inhibition at 1 µM", "setting": "[39]", "result": 0, "unit": "%"}, {"measurement": "inhibition at 1 µM", "setting": "[40]", "result": 1, "unit": "%"}, {"measurement": "inhibition at 1 µM", "setting": "[41]", "result": 12, "unit": "%"}, {"measurement": "inhibition at 1 µM", "setting": "[42]", "result": 0, "unit": "%"}, {"measurement": "inhibition at 1 µM", "setting": "[43]", "result": 25, "unit": "%"}]}]}
